Active and inactive are the calls of the source. The rule behind the calls is not given here.
Key:
Assay type in all cases: functional
[1] = test system: Klebsiella pneumoniae; assay: Antimicrobial activity against Klebsiella pneumoniae at 2000 ug after 24 hr by disk diffusion method relative to control
[2] = test system: Pseudomonas aeruginosa; assay: Antimicrobial activity against Pseudomonas aeruginosa at 2000 ug after 24 hr by disk diffusion method relative to control
[3] = test system: Escherichia coli; assay: Antimicrobial activity against Escherichia coli at 2000 ug after 24 hr by disk diffusion method relative to control
[4] = test system: Bacillus subtilis; assay: Antimicrobial activity against Bacillus subtilis at 2000 ug after 24 hr by disk diffusion method; conditions: read-out: IZ
[5] = test system: Bacillus subtilis; assay: Antimicrobial activity against Bacillus subtilis at 2000 ug after 24 hr by disk diffusion method relative to control
[6] = test system: Staphylococcus aureus; assay: Antimicrobial activity against Staphylococcus aureus at 2000 ug after 24 hr by disk diffusion method relative to control
[7] = test system: Staphylococcus aureus; assay: Antimicrobial activity against Staphylococcus aureus at 2000 ug after 24 hr by disk diffusion method; conditions: read-out: IZ
[8] = test system: Escherichia coli; assay: Antimicrobial activity against Escherichia coli at 2000 ug after 24 hr by disk diffusion method; conditions: read-out: IZ
[9] = test system: Pseudomonas aeruginosa; assay: Antimicrobial activity against Pseudomonas aeruginosa at 2000 ug after 24 hr by disk diffusion method; conditions: read-out: IZ
[10] = test system: Klebsiella pneumoniae; assay: Antimicrobial activity against Klebsiella pneumoniae at 2000 ug after 24 hr by disk diffusion method; conditions: read-out: IZ

Row | Compound | inhibition [1] | inhibition [2] | inhibition [3] | zone of inhibition at 2000 µg/disc [4] | inhibition (INH) [5] | inhibition (INH) [6] | zone of inhibition at 2000 µg/disc [7] | inhibition (INH) [1] | inhibition (INH) [2] | zone of inhibition at 2000 µg/disc [8] | inhibition (INH) [3] | zone of inhibition at 2000 µg/disc [9] | zone of inhibition at 2000 µg/disc [10]
1 | COc1ccc(/N=C/c2cc(/N=N/c3ccc(OC)cc3)cc(OC)c2O)cc1 | inactive | inactive | inactive | – | – | – | – | – | – | – | – | – | –
2 | COc1ccc(/N=N/c2cc(C=O)c(O)c(OC)c2)cc1 | inactive | inactive | inactive | 10 mm | 45% | 45% | 10 mm | – | – | – | – | – | –
3 | COc1ccc(/N=N/c2cc(/C=N/Cc3ccccc3)c(O)c(OC)c2)cc1 | inactive | inactive | inactive | – | – | – | – | – | – | – | – | – | –
4 | COc1ccc(/N=N/c2cc(/C=N/c3ccccc3)c(O)c(OC)c2)cc1 | inactive | inactive | inactive | 10 mm | 45% | 45% | 10 mm | – | – | – | – | – | –
5 | CC1(C)S[C@@H]2[C@H](NC(=O)[C@H](N)c3ccccc3)C(=O)N2[C@H]1C(=O)O | inactive | inactive | inactive | – | – | – | – | – | – | – | – | – | –
6 | CN[C@@H]1[C@H](O[C@H]2[C@H](O[C@H]3[C@H](O)[C@@H](O)[C@H](N=C(N)N)[C@@H](O)[C@@H]3N=C(N)N)O[C@@H](C)[C@]2(O)C=O)O[C@@H](CO)[C@H](O)[C@H]1O [STREPTOMYCIN] | – | – | – | 14 mm | 64% | 45% | 10 mm | 64% | 64% | 14 mm | 64% | 14 mm | 14 mm
7 | COc1ccc(/N=N/c2cc(/C=N/c3ccccc3C)c(O)c(OC)c2)cc1 | inactive | inactive | inactive | – | – | – | – | – | – | – | – | – | –
8 | COc1ccc(/N=N/c2cc(/C=N/c3ccc(S(=O)(=O)c4cccc(/N=C/c5cc(/N=N/c6ccc(OC)cc6)cc(OC)c5O)c4)cc3)c(O)c(OC)c2)cc1 | inactive | inactive | inactive | 14 mm | 64% | 45% | 10 mm | – | – | – | – | – | –
9 | COc1ccc(/N=N/c2cc(/C=N/c3cccc(C)c3)c(O)c(OC)c2)cc1 | inactive | inactive | inactive | 10 mm | 45% | 45% | 10 mm | – | – | – | – | – | –
10 | COc1ccc(/N=N/c2cc(/C=N/c3cccc(O)c3)c(O)c(OC)c2)cc1 | inactive | inactive | inactive | 10 mm | 45% | 45% | 10 mm | – | – | – | – | – | –
11 | COc1ccc(/N=N/c2cc(/C=N/c3cccc(OC)c3)c(O)c(OC)c2)cc1 | inactive | inactive | inactive | 10 mm | 45% | 45% | 10 mm | – | – | – | – | – | –
12 | COc1ccc(/N=N/c2cc(/C=N/c3ccccc3OC)c(O)c(OC)c2)cc1 | inactive | inactive | inactive | – | – | – | – | – | – | – | – | – | –
13 | COc1ccc(/N=N/c2cc(/C=N/c3ccc(Oc4cccc(/N=C/c5cc(/N=N/c6ccc(OC)cc6)cc(OC)c5O)c4)cc3)c(O)c(OC)c2)cc1 | inactive | inactive | inactive | – | – | – | – | – | – | – | – | – | –

— ChEMBL document CHEMBL3045098, “Petra, Osiris and Molinspiration (POM) together as a successful support in drug design: antibacterial activity and biopharmaceutical characterization of some azo Schiff bases” (2012)
